Results from patent US11046699B2, “Pyrazolo-pyrimidin-amino-cycloalkyl compounds and their therapeutic uses” (RAPT THERAPEUTICS, INC., priority 2018, dated 2021).
Where two headings read alike, the source gives them in different places.

Molecular target: GCN2 (Homo sapiens, UniProt Q9P2K8)
Assay: GCN2 enzymatic endpoint assay: phosphorylation of GFP-eIF2α measured by TR-FRET (Lanthascreen)
Format: biochemical
Method in brief: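 Read-out is the TR-FRET ratio of acceptor signal at 520 nm to terbium donor at 495 nm, rising with antibody binding to phosphorylated GFP-eIF2α. Endpoint format: 2 μM ATP, 80 nM substrate, 90 minutes at room temperature, EDTA stop.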

[1] = tested as described in Example 77, compound and/or hydrochloride, dihydrochloride or trifluoroacetic acid salt, read-out: IC 50 Activity
[2] = GCN2 biochemical IC50, 4 nM GCN2, 2 μM ATP, 80 nM GFP-eIF2α, 90 min RT, read-out: GCN2 activity

Chain of GCN2 (Q9P2K8 whole entry): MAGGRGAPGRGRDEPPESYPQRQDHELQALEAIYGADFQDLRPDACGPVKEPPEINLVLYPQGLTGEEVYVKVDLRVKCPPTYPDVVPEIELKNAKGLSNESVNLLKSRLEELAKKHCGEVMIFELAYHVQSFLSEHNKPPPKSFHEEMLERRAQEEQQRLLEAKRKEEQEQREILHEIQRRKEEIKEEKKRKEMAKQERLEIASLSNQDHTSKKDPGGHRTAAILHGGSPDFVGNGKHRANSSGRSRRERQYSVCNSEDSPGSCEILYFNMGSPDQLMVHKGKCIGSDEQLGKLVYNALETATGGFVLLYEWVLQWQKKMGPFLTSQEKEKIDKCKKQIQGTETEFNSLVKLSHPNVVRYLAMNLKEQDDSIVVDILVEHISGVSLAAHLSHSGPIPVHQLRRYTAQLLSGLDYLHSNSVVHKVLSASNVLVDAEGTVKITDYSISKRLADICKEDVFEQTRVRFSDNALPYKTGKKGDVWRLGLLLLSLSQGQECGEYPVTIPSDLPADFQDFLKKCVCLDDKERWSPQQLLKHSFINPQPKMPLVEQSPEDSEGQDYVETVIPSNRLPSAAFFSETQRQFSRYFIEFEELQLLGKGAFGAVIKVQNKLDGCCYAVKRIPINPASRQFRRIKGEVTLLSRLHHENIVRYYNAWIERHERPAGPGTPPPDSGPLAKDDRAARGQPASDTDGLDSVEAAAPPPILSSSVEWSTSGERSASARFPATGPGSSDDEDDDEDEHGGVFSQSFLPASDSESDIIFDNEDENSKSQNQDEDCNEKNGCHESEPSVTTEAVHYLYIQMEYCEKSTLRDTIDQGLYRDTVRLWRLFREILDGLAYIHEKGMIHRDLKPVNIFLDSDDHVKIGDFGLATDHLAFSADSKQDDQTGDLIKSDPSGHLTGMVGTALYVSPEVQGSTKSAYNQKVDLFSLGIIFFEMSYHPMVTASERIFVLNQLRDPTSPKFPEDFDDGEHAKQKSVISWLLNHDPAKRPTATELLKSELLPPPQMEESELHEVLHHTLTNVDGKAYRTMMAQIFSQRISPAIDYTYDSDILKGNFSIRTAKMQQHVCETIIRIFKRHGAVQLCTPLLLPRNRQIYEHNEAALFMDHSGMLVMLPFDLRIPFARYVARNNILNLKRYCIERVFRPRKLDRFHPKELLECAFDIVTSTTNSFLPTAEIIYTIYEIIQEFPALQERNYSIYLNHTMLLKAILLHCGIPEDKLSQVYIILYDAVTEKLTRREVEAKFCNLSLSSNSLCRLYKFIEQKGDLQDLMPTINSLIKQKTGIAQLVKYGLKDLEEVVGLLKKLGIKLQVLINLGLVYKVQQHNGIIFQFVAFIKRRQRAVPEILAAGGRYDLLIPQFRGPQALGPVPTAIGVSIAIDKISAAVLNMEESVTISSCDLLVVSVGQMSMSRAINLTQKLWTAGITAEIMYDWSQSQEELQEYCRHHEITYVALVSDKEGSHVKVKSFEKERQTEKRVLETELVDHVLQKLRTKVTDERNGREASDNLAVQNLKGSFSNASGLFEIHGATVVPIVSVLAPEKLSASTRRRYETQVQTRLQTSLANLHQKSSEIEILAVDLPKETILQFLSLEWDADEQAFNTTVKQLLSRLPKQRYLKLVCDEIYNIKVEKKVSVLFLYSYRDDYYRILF

| SMILES | IC50 [1] | IC50 [2] |
| --- | --- | --- |
| CNC(=O)[C@]1(C)CC[C@@H](Nc2ncc3c(Br)nn(-c4ccc(-c5ncco5)c([C@H]5CCNC5)c4)c3n2)C1 [(1R,3R)-3-[[3-bromo-1-[4-oxazol-2-yl-3-[(3R)-pyrrolidin-3-yl]phenyl]pyrazolo[3,4-d]pyrimidin-6-yl]amino]-N,1-dimethyl-cyclopentane-carboxamide] | 25 to 200 nM |  |
| CNC(=O)[C@]1(C)CC[C@@H](Nc2ncc3c(Br)nn(-c4cc(C5CCNC5)c5ncccc5c4)c3n2)C1 (stereo partly drawn) [(1R,3R)-3-[[3-bromo-1-(8-pyrrolidin-3-yl-6-quinolyl)pyrazolo[3,4-d]pyrimidin-6-yl]amino]-N,1-dimethyl-cyclopentane-carboxamide] | < 25 nM |  |
| CNC(=O)[C@H]1CC[C@@H](Nc2ncc3c(Br)nn(-c4cc(F)c5ncccc5c4)c3n2)C1 [(1S,3R)-3-[[3-bromo-1-(8-fluoro-6-quinolyl)pyrazolo[3,4-d]pyrimidin-6-yl]amino]-N-methyl-cyclopentanecarboxamide] | < 25 nM |  |
| CNC(=O)[C@@]1(CC(F)(F)F)CC[C@@H](Nc2ncc3c(Br)nn(-c4ccc(-c5nnc(C)s5)cc4)c3n2)C1 | 25 to 200 nM |  |
| O=S(=O)(NC1CC1)[C@@H]1CC[C@@H](Nc2ncc3c(Br)nn(-c4ccc5ncccc5c4)c3n2)C1 [(1R,3R)-3-((3-bromo-1-(quinolin-6-yl)-1H-pyrazolo[3,4-d]pyrimidin-6-yl)amino)-N-cyclopropylcyclopentane-1-sulfonamide] | 25 to 200 nM |  |
| N#Cc1cc(-n2nc(Br)c3cnc(N[C@@H]4CC[C@@H](C(=O)N5CC(F)C5)C4)nc32)cc2cccnc12 [6-(3-bromo-6-(((1R,3R)-3-(3-fluoroazetidine-1-carbonyl)cyclopentyl)amino)-1H-pyrazolo [3,4-d]pyrimidin-1-yl)quinoline-8-carbonitrile] | < 25 nM |  |
| O=C(NCCc1cnc[nH]1)[C@@H]1CC[C@@H](Nc2ncc3c(Br)nn(-c4cc(F)c5ncccc5c4)c3n2)C1 [(1R,3R)-N-(2-(1H-imidazol-5-yl)ethyl)-3-((3-bromo-1-(8-fluoroquinolin-6-yl)-1H-pyrazolo [3,4-d]pyrimidin-6-yl)amino)cyclopentane-1-carboxamide] | 25 to 200 nM |  |
| CNC(=O)[C@]1(C(C)C)CC[C@@H](Nc2ncc3c(Br)nn(-c4ccc(-c5nnc(C)s5)c(CCC#N)c4)c3n2)C1 [(1R,3R)-3-[[3-bromo-1-[3-(2-cyanoethyl)-4-(5-methyl-1,3,4-thiadiazol-2-yl)phenyl]pyrazolo[3,4-d]pyrimidin-6-yl]amino]-1-isopropyl-N-methyl-cyclopentane-carboxamide] | 25 to 200 nM |  |
| CNC(=O)[C@@H]1CC[C@@H](Nc2ncc3c(Br)nn(-c4cc(C#N)c5c(c4)CCO5)c3n2)C1 [(1R,3R)-3-[[3-bromo-1-(7-cyano-2,3-dihydro-benzofuran-5-yl)pyrazolo[3,4-d]pyrimidin-6-yl]amino]-N-methyl-cyclopentanecarboxamide] | 25 to 200 nM |  |
| COCC(C)(C)NC(=O)[C@@H]1CC[C@@H](Nc2ncc3c(Br)nn(-c4ccc5ncccc5c4)c3n2)C1 [(1R,3R)-3-((3-bromo-1-(quinolin-6-yl)-1H-pyrazolo[3,4-d]pyrimidin-6-yl)amino)-N-(1-methoxy-2-methylpropan-2-yl)cyclopentane-1-carboxamide] | 200 to 500 nM |  |
| CNC(=O)[C@]1(C)CC[C@@H](Nc2ncc3c(Br)nn(-c4ccc(C5=NOCC5)cc4)c3n2)C1 [(1R,3R)-3-[[3-bromo-1-[4-(4,5-dihydro-isoxazol-3-yl)phenyl]pyrazolo[3,4-d]pyrimidin-6-yl]amino]-N,1-dimethyl-cyclopentanecarboxamide] | 25 to 200 nM |  |
| CC[C@@H](N)c1cc(Cl)cc(-n2nc(Br)c3cnc(N[C@@H]4CC[C@@](C)(C(=O)NC)C4)nc32)c1 | < 25 nM |  |
| Cc1nnc(-c2ccc(-n3nc(Br)c4cnc(N[C@@H]5CCC(S(C)(=O)=O)C5)nc43)cc2)s1 (stereo partly drawn) [3-bromo-N-[(1R)-3-methylsulfonylcyclo-pentyl]-1-[4-(5-methyl-1,3,4-thiadiazol-2-yl)phenyl]pyrazolo[3,4-d]pyrimidin-6-amine] | 25 to 200 nM |  |
| CNC(=O)[C@]1(C)CC[C@@H](Nc2ncc3c(Br)nn(-c4ccc(-c5nnc(C)s5)c(CCN)c4)c3n2)C1 [(1R,3R)-3-[[1-[3-(2-aminoethyl)-4-(5-methyl-1,3,4-thiadiazol-2-yl)phenyl]-3-bromo-pyrazolo[3,4-d]pyrimidin-6-yl]amino]-N,1-dimethyl-cyclopentane-carboxamide] | 25 to 200 nM |  |

More lines, now with the values ahead:

| IC50 [1] | IC50 [2] | SMILES |
| --- | --- | --- |
|  | < 25 nM | Cc1nnc(-c2ccc(-n3nc(Br)c4cnc(N[C@@H]5CC[C@@](C)(O)C5)nc43)cc2C#N)s1 [Example 67, 5-(3-bromo-6-(((1R,3R)-3-hydroxy-3-methylcyclopentyl)amino)-1H-pyrazolo[3,4-d]pyrimidin-1-yl)-2-(5-methyl-1,3,4-thiadiazol-2-yl)benzonitrile] |
| 25 to 200 nM |  | CN(CCNC(=O)[C@@H]1CC[C@@H](Nc2ncc3c(Br)nn(-c4ccc5ncccc5c4)c3n2)C1)CC(=O)O [N-(2-((1R,3R)-3-((3-bromo-1-(quinolin-6-yl)-1H-pyrazolo[3,4-d]pyrimidin-6-yl)amino)cyclopentane-1-carboxamido)ethyl)-N-methylglycine] |
| < 25 nM |  | CNC(=O)[C@@H]1CC[C@@H](Nc2ncc3c(I)nn(-c4cc(F)c5ncccc5c4)c3n2)C1 [(1R,3R)-3-[[1-(8-fluoro-6-quinolyl)-3-iodo-pyrazolo[3,4-d]pyrimidin-6-yl]amino]-N-methyl-cyclopentanecarboxamide] |
| 500 to 1000 nM |  | COCCNC(=O)[C@H]1CC[C@H](Nc2ncc3c(Br)nn(-c4ccc5ncccc5c4)c3n2)C1 [(1S,3S)-3-((3-bromo-1-(quinolin-6-yl)-1H-pyrazolo[3,4-d]pyrimidin-6-yl)amino)-N-(2-methoxyethyl)cyclopentane-1-carboxamide] |
| < 25 nM |  | CNC(=O)[C@]1(C)CC[C@@H](Nc2ncc3c(Br)nn(-c4cc(CCC#N)c5ncccc5c4)c3n2)C1 [(1R,3R)-3-[[3-bromo-1-[8-(2-cyanoethyl)-6-quinolyl]pyrazolo[3,4-d]pyrimidin-6-yl]amino]-N,1-dimethyl-cyclopentane-carboxamide] |
| 25 to 200 nM |  | CNC(=O)[C@]1(C)CC[C@@H](Nc2ncc3c(Br)nn(-c4ccc(-c5nnc(CN)s5)cc4)c3n2)C1 [(1R,3R)-3-[[1-[4-[5-(aminomethyl)-1,3,4-thiadiazol-2-yl]phenyl]-3-bromo-pyrazolo [3,4-d]pyrimidin-6-yl]amino]-N,1-dimethyl-cyclopentanecarboxamide] |
| < 25 nM |  | CNC(=O)[C@]1(C)CC[C@@H](Nc2ncc3c(Br)nn(-c4cc(/C=C/S(C)(=O)=O)c5ncccc5c4)c3n2)C1 [(1R,3R)-3-[[3-bromo-1-[8-[(E)-2-methyl-sulfonylvinyl]-6-quinolyl]pyrazolo[3,4-d]pyrimidin-6-yl]amino]-N,1-dimethyl-cyclopentanecarboxamide] |
| 25 to 200 nM |  | CNC(=O)[C@@]1(CC(F)F)CC[C@@H](Nc2ncc3c(Br)nn(-c4cc(CCO)c5ncccc5c4)c3n2)C1 [(1S,3R)-3-[[3-bromo-1-[8-(2-hydroxyethyl)-6-quinolyl]pyrazolo[3,4-d]pyrimidin-6-yl]amino]-1-(2,2-difluoroethyl)-N-methyl-cyclopentanecarboxamide] |
| 500 to 1000 nM |  | CN(C)C(=O)N1CC[C@@H](Nc2ncc3c(Br)nn(-c4ccc5ncccc5c4)c3n2)C1 [(R)-3-((3-bromo-1-(quinolin-6-yl)-1H-pyrazolo [3,4-d]pyrimidin-6-yl)amino)-N,N-dimethyl-pyrrolidine-1-carboxamide] |
| 25 to 200 nM |  | CNCCc1cc(-n2nc(Br)c3cnc(N[C@@H]4CC[C@@](C)(C(=O)NC)C4)nc32)ccc1-c1ncco1 [(1R,3R)-3-[[3-bromo-1-[3-[2-(methylamino)ethyl]-4-oxazol-2-yl-phenyl]pyrazolo[3,4-d]pyrimidin-6-yl]amino]-N,1-dimethyl-cyclopentanecarboxamide] |
| 25 to 200 nM |  | COCCNC(=O)[C@]1(C)CC[C@@H](Nc2ncc3c(Br)nn(-c4ccc5ncccc5c4)c3n2)C1 [(1R,3R)-3-((3-bromo-1-(quinolin-6-yl)-1H-pyrazolo[3,4-d]pyrimidin-6-yl)amino)-N-(2-methoxyethyl)-1-methylcyclopentane-1-carboxamide] |
| 25 to 200 nM |  | Cc1nc2c(F)cc(-n3nc(Br)c4cnc(N[C@@H]5CC[C@@H](C(=O)N6CCN(C)C(=O)C6)C5)nc43)cc2cc1F [4-((1R,3R)-3-((3-bromo-1-(3,8-difluoro-2-methylquinolin-6-yl)-1H-pyrazolo[3,4-d]pyrimidin-6-yl)amino)cyclopentane-1-carbonyl)-1-methylpiperazin-2-one] |
| 25 to 200 nM |  | CNC(=O)[C@]1(C)CC[C@@H](Nc2ncc3c(Br)nn(-c4cc(CNS(C)(=O)=O)c5nccnc5c4)c3n2)C1 [(1R,3R)-3-[[3-bromo-1-[8-(methane-sulfonamidomethyl)quinoxalin-6-yl]pyrazolo[3,4-d]pyrimidin-6-yl]amino]-N,1-dimethyl-cyclopentanecarboxamide] |
| 25 to 200 nM |  | CNC(=O)[C@]1(C)CC[C@@H](Nc2ncc3c(Br)nn(-c4ccc5c(c4)C(=O)NC5=O)c3n2)C1 [(1R,3R)-3-[[3-bromo-1-(1,3-dioxo-isoindolin-5-yl)pyrazolo[3,4-d]pyrimidin-6-yl]amino]-N,1-dimethyl-cyclopentanecarboxamide] |
|  | < 25 nM | CNC(=O)[C@]1(C)CC[C@@H](Nc2ncc3c(Br)nn(-c4cc(C#N)cc(OCC5(F)CNC5)c4)c3n2)C1 [Example 36, (1R,3R)-3-((3-bromo-1-(3-cyano-5-((3-fluoroazetidin-3-yl)methoxy)phenyl)-1H-pyrazolo[3,4-d]pyrimidin-6-yl)amino)-N,1-dimethylcyclopentane-1-carboxamide; 2,2,2-trifluoroacetic acid] |
|  | 200 to 500 nM | COCCNC(=O)[C@@H]1CC[C@@H](Nc2ncc3c(Br)nn(-c4ccc(-c5cccnc5)cc4)c3n2)C1 [Example 24, (1R,3R)-3-((3-bromo-1-(4-(pyridin-3-yl)phenyl)-1H-pyrazolo[3,4-d]pyrimidin-6-yl)amino)-N-(2-methoxyethyl)cyclopentane-1-carboxamide] |
